Assay results published in patent US20210300924A1, “5-[6-[[3-(4,5,6,7-TETRAHYDROPYRAZOLO[4,3-C]PYRIDIN-1-YL)AZETIDIN-1-YL]METHYL]MORPHOLIN-4-YL]QUINOLINE-8-CARBONITRILE DERIVATIVES AND SIMILAR COMPOUNDS AS TLR7-9 ANTAGONISTS FOR TREATING SYSTEMIC LUPUS ERYTHEMATOSUS” (Hoffmann-La Roche Inc., priority 2018, published 2021).
Like-named read-outs stand apart in the source and are kept apart here.

Columns and labels:
[1] = target: T1, hERG channel (Homo sapiens, UniProt Q12809); experiment: hERG channel inhibition assay (patch-clamp, CHOhERG cells); format: cell-based; conditions: for safety window (hERG IC20/TLR7/8/9 IC50) compared to the compounds of this invention: in words; for hERG IC20/TLR7 IC50 / hERG IC20/TLR9 IC50 / hERG IC20/TLR8 IC50: safety ratio, >30 suggests sufficient window
T1 construct: expressed in transfected cells; host or cells: CHO (Chinese hamster ovary), CHOhERG
T1 sequence (Q12809 whole entry): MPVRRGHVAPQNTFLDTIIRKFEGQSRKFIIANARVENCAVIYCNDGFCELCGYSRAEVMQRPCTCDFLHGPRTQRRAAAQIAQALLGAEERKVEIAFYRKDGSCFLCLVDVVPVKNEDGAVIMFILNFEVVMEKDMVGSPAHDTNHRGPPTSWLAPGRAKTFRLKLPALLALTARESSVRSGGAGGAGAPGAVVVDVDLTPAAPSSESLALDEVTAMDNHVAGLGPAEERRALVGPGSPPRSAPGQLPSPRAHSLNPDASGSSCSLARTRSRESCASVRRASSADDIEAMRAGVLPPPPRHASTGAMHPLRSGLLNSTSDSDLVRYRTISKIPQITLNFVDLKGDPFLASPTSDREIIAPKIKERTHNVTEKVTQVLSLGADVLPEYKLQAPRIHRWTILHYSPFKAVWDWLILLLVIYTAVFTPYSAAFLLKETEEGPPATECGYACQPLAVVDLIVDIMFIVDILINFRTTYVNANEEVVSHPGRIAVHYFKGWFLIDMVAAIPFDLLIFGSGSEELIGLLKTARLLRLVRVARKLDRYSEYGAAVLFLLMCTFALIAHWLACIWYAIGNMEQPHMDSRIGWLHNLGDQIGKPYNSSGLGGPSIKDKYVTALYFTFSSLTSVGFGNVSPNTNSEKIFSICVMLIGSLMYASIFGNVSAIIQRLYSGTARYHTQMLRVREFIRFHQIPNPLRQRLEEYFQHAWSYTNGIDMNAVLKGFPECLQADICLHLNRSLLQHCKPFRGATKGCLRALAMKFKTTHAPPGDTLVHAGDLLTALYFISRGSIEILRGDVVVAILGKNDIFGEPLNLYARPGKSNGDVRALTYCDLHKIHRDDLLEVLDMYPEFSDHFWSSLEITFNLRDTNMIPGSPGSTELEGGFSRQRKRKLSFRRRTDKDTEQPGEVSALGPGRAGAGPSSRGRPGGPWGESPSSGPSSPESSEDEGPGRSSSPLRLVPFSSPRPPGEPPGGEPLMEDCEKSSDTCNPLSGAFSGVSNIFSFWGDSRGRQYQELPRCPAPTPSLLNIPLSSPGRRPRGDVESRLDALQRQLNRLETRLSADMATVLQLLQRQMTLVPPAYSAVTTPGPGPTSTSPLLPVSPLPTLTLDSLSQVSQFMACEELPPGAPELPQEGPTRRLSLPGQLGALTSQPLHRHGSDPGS
Procedure: hERG Channel Inhibition Assay:
The hERG K^+ channels were cloned in humans and stably expressed in a CHO (Chinese hamster ovary) cell line. CHOhERG cells were used for patch-clamp (voltage-clamp, whole-cell) experiments. Cells were stimulated by a voltage pattern to activate hERG channels and conduct hERG currents (rapid delayed outward rectifier potassium current of the hERG channel). After the cells were stabilized for a few minutes, the amplitude and kinetics of IKhERG were recorded at a stimulation frequency of 0.1 Hz (6 bpm). Thereafter, the test compound was added to the preparation at increasing concentrations. For each concentration, an attempt was made to reach a steady-state effect, usually, this was achieved within 3-10 min at which time the next highest concentration was applied. The amplitude and kinetics of IKhERG are recorded in each concentration of the drug which were compared to the control values (taken as 100%). (references: Redfern W S, Carlsson L, Davis A S, Lynch W G, MacKenzie I, Palethorpe S, Siegl P K, Strang I, Sullivan A T, Wallis R, Camm A J, Hammond T G. 2003; Relationships between preclinical cardiac electrophysiology, clinical QT interval prolongation and torsade de pointes for a broad range of drugs: evidence for a provisional safety margin in drug development. Cardiovasc. Res. 58:32-45, Sanguinetti MC, Tristani-Firouzi M. 2006; hERG potassium channels and cardiac arrhythmia. Nature 440:463-469, Webster R, Leishman D, Walker D. 2002; Towards a drug concentration effect relationship for QT prolongation and torsades de pointes. Curr. Opin. Drug Discov. Devel. 5:116-26).

[2] = target: T2, TLR9 (Homo sapiens, UniProt Q9NR96); set-up: host or cells: HEK cells; conditions: data disclosed in US20150105370; read-out: HEK/hTLR9 IC50; cited from earlier work
T2 sequence (Q9NR96 26-1032): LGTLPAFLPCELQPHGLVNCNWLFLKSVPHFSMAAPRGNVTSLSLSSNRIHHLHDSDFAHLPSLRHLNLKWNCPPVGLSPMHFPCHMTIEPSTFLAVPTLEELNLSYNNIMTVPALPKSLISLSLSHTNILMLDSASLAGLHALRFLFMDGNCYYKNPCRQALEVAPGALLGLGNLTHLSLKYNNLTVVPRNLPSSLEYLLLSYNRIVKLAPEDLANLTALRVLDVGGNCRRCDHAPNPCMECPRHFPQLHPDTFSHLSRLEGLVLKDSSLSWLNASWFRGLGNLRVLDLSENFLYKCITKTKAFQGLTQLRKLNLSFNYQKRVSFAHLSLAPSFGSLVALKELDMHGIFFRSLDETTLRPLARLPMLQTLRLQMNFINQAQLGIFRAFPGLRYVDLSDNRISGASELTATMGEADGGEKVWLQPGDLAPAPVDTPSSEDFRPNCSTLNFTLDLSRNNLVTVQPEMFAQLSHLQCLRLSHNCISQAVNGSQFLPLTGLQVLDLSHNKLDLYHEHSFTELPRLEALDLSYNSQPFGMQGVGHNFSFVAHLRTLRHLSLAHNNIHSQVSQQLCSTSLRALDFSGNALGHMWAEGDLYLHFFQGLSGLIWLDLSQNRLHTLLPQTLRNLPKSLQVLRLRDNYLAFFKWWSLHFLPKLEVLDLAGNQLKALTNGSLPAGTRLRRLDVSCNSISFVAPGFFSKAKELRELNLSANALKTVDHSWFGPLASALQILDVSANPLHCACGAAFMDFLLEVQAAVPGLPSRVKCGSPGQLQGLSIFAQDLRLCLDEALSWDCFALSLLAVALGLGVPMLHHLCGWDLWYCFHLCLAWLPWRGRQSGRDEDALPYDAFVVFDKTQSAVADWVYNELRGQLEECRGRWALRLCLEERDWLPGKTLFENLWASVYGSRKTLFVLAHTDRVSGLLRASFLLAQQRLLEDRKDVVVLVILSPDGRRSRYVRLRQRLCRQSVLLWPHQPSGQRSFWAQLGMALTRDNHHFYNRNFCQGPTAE

[3] = target: T2, TLR9; experiment: Human PBMC cell-based assay; set-up: endogenous in cells; host or cells: human PBMC from healthy donor whole blood; conditions: CpG ODN 2216 stimulation, overnight, cytokine readout, read-out: hPBMC/TLR9 IC50
Source text: Human PBMC Cell-Based Assay
Unlike the HEK reporter cell lines, human peripheral blood mononuclear cell (PBMC) represents primary human immune cells in blood mainly consisting of lymphocytes, monocytes, and dendritic cells. These cells express TLR7, TLR8, or TLR9, and therefore are natural responders to respective ligand stimulation. Upon activation of these TLRs, PBMCs secrete similar cytokines and chemokines in vitro and in vivo, and therefore the in vitro potency of a TLR7/8/9 antagonist in human PBMC is readily translatable to its pharmacodynamics response in vivo.
Human peripheral blood mononuclear cells (PBMC) were isolated from freshly-drawn lithium-heparinized (Lithium Heparin Plus blood Collection tube, BD Vacutainer®) healthy donor whole blood by density gradient (Ficoll-Paque™ PLUS, GE Healthcare life Sciences). Briefly, […] was diluted with 25 mL PBS (without Ca^2+, Mg^2+) in a 50 mL conical tube with porous barrier (Leucosep tube, Greiner bio-one), where 15.5 mL Ficoll-Paque was under laid after spinning. Tubes were centrifuged for 20 minutes at 800×g (1946 rpm) with the brake in the off position, and PBMC were collected from the buffy coat. Cells were then washed twice in PBS, and red blood cells were lysed by suspension in 2 mL (Red Blood Cell Lysis Buffer, Alfa Aesar) for 5-10 minutes at room temperature. After a final wash in PBS, PBMC were resuspended at a final concentration of 2×10^6 cells/mL in RPMI-1640 media with GlutaMAX™ (Gibco) supplemented with 10% Fetal Bovine Serum (Sigma) and plated at 150 μL/well (3×10^5 cells/well) in tissue culture treated round bottom 96-well plates (Corning Incorporated). Antagonist compounds (compounds of this invention) solubilized and serial diluted in 100% DMSO were added in duplicate to cells to yield a final concentration of 1% DMSO (v/v). PBMC were incubated with antagonist compounds for 30 minutes at 37° C., 5% CO2 before adding various TLR agonist reagents in 48 μL complete media per well as follows (final concentrations indicated): CpG ODN 2216 (InvivoGen) at […] for TLR9, ORN 06/LyoVec (InvivoGen) at 1 μg/mL for TLR8 and R848 (InvivoGen) at 1 μg/mL for TLR7 and TLR8. PBMC were incubated overnight at 37° C. with 5% CO2. Cell culture supernatants were collected, and levels of various human cytokines were assessed by Luminex assay (ProcartaPlex™ Multiplex Immunoassay, Invitrogen) or ELISA procedure according to the manufacturer's recommended protocol (eBioscience, ThermoFisher Scientific). Viability of the cells was also checked with Cell Viability Assay (CellTiter Glo® Luminescent Cell Viability Assay, Promega).

IC50 [3] [nM]	SMILES	safety window (hERG IC20/TLR7/8/9 IC50) compared to the compounds of this invention [1]	hERG IC20/TLR7 IC50 [1]	hERG IC20/TLR9 IC50 [1]	IC50 [2] [nM]	hERG IC20/TLR8 IC50 [1]
–	C[C@@H]1CN(c2ccc(C#N)c3ncccc23)C[C@H](CN2CCN(c3ccccc3)CC2)O1 [ER-887258, reference compound]	much narrower safety window	8.1	0.3	> 2000	–
–	C[C@@H]1CN(c2ccc(C#N)c3ncccc23)C[C@H](CN2CCN(c3ccccn3)CC2)O1 [ER-888285, reference compound]	much narrower safety window	8.4	0.5	> 2000	–
1630	C[C@@H]1CN(c2ccc(C#N)c3ncccc23)C[C@H](CN2CCN(c3ccncc3)CC2)O1 [ER-888286, reference compound]	much narrower safety window	0.3	0.2	> 2000	–
–	C[C@@H]1CN(c2ccc(C#N)c3ncccc23)C[C@H](CN2CC(NS(=O)(=O)c3ccc(F)cc3)C2)O1 [ER-894155]	–	–	–	> 10000	–
–	Cc1nn(C)cc1S(=O)(=O)NC1CCN(C[C@H]2CN(c3ccc(C#N)c4ncccc34)C[C@@H](C)O2)CC1 [ER-894160]	–	–	–	> 10000	–
–	C[C@@H]1CN(c2ccc(C#N)c3ncccc23)C[C@H](CN2CC[C@@H](NC(=O)c3ccccc3)C2)O1 [ER-894544]	–	–	–	> 6200	–
–	COc1ccc(N2CCN(C[C@H]3CN(c4ccc(C#N)c5ncccc45)C[C@@H](C)O3)CC2)cc1 [Example R1, 5-[(2S,6R)-2-[[4-(4-methoxyphenyl)piperazin-1-yl]methyl]-6-methyl-morpholin-4-yl]quinoline-8-carbonitrile, reference compound]	much narrower safety window	9.3	0.1	–	6.2
–	C[C@@H]1CN(c2ccc(C#N)c3ncccc23)C[C@H](CN2CCN(c3ccc(Cl)cc3)CC2)O1 [Example R2, 5-[(2S,6R)-2-[[4-(4-chlorophenyl)piperazin-1-yl]methyl]-6-methyl-morpholin-4-yl]quinoline-8-carbonitrile, reference compound]	much narrower safety window	1.3	0.04	–	0.8
